Laboratory results published in US20120142596A1, “AGENT FOR STIMULATING MOBILIZATION OF ENDOTHELIAL PROGENITOR CELLS” (priority 2009, published 2012).

B1: G-CSF: positive control, CJ Pharma Leukokine Inj. 150; known EPC mobilization factor (protein, UniProt P09919 31-207, looked up)
Granulocyte …: TPLGPASSLPQSFLLKCLEQVRKIQGDGAALQEKLVSECATYKLCHPEELVLLGHSLGIPWAPLSSCPSQALQLAGCLSQLHSGLFLYQGLLQALEGISPELGPTLDTLQLDVADFATTIWQQMEELGMAPALQPTQGAMPAFASAFQRRAGGVLVASHLQSFLEVSYRVLRHLAQP

Key:
[1] = test system: endothelial progenitor cells; test: EPC CFU in bone marrow aspirate after intra-bone marrow administration; format: in vivo, New Zealand white rabbits; settings: rabbit, intra-bone marrow injection, bone marrow aspirate 24 hours after injection, 1 week culture; for increase in amount of mobilized EPCs (CFU) compared to negative control group: SP 4 nmole/kg, G-CSF 2.5 μg/kg
Experimental: (§1) Ketamine hydrochloride (50 mg/ml Yuhan, Korea) and Rompun (xylazine hydrochloride, 23.32 mg/ml Bayer Korea) were mixed at a ratio of 2:1, and then 900 μl of the mixture (600 μl of ketamine hydrochloride and 300 μl of Rompun) was injected intramuscularly into New Zealand white rabbits (male, 2.5 kg, n=4). 5 minutes after the intramuscular injection, the same anesthetic (200 μl of ketamine hydrochloride and 100 μl of Rompun) was injected intravenously into the ear of each rabbit to completely anesthetize the rabbits.
SP (Sigma, 4 nmole/kg in saline) was injected into the right iliac crest of one rabbit group at an injection volume of 0.1 ml using a 18G spinal needle.
As a negative control, 1×PBS was injected into the left iliac crest of another rabbit group at an injection volume of 0.1 ml using a 18G spinal needle. As a positive control, G-CSF (CJ Pharma Leukokine Inj. 150; 2.5 μg/kg) was injected into the right iliac crest at an injection volume of 0.1 ml using a 18G spinal needle.
24 hours after the injection, 4 ml of a bone marrow aspirate was isolated from the bone marrow, two-fold diluted in PBS, and then carefully placed on Ficoll (GE Health care) contained in a tube (Ficoll: bone marrow aspirate=1:1 v/v). Then, the cell dilution was centrifuged at 2200 rpm for 25 minutes. As a result, a red blood cell layer, a ficoll layer, a mononuclear cell layer and a plasma layer, from bottom to top, were formed. After removing the plasma layer, only the mononuclear cell layer was separated and transferred into a new tube. 30 ml of PBS was added to the obtained mononuclear cell layer and centrifuged again (washing step).
The isolated cells were seeded on a 100-mm dish (Falcon) coated with fibronectin and were cultured in EGM-2 (Endothelial growth medium-2, Lonza) for 1 week (5% CO2 and 37° C.). After the culture, the CFU of the cells was measured and compared with those of the group injected with PBS and the group injected with the positive control G-CSF.

[2] = test system: endothelial progenitor cells; test: Comparison of EPC colony formation in peripheral blood after intravenous administration of SP and G-CSF; format: in vivo, New Zealand white rabbits; settings: rabbit
Experimental: (§2) According to the same method described in Example 1-(1), 0.1 ml of SP was administered to one rabbit group (New Zealand white rabbits, male, 2.5 kg, n=3), and 0.1 ml of G-CSF (CJ Pharma, Leukokine inj. 150; 2.5 μg/kg) as a positive control was administered to another rabbit group (New Zealand white rabbits, male, 2.5 kg, n=3). 1, 2 and 3 days after the administration, 5-15 ml of peripheral blood was isolated from each animal group. The isolated blood was two-fold diluted in PBS and carefully placed on Ficoll contained in a tube (Ficoll: peripheral blood=1:1 v/v). Then, the cell dilution was centrifuged at 2200 rpm for 25 minutes. The uppermost plasma layer was removed, and only the mononuclear cell layer was separated from the tube and transferred into a new tube. 30 ml of PBS was added to the obtained mononuclear cell layer and centrifuged at 1500 rpm for 5 minutes (washing step). The cells were suspended in EGM-2 (endothelial growth medium-2, Lonza), and the suspended cells were seeded on a 100-mm dish (Falcon) coated with fibronectin and were cultured in EGM-2 (endothelial growth medium-2, Lonza) for 2 weeks (5% CO2 and 37° C.). After the culture, the produced colonies were stained with toluidine blue and counted.

[3] = test system: endothelial progenitor cells; test: EPC mobilization to peripheral blood after intravenous administration (EPC colony count); format: in vivo, New Zealand white rabbits; settings: rabbit, 5 nmole/kg i.v. twice (0 and 24 h), blood 3 days after first injection, 2 weeks culture, vs PBS control
Experimental: as §1, with “n=3). 10” for “n=4). 5”, “ear vein” for “ear”, “rabbits. Then, 5 nmole/kg of SP was dissolved in physiological saline solution, and 1 ml of the solution was administered slowly into the ear vein of one rabbit group. As a control, 1 ml of 1×PBS was administered into the ear vein of another rabbit group. 24 hours after the administration, the same amount of each of SP and 1×PBS was injected once more.” for “rabbits.”
3 days after the first injection, peripheral blood was collected from the ear blood vessels of the rabbits, and 10 ml of the collected blood was two-fold diluted in PBS, and then carefully placed on Ficoll contained in a tube (Ficoll: peripheral blood=1:1 v/v). Next, the blood dilution was centrifuged at 2200 rpm for 25 minutes. As a result, a red blood cell (RBC) layer, a ficoll layer, a mononuclear cell layer and a plasma layer, from bottom to top, were formed. […]

[4] = test system: endothelial progenitor cells; test: Comparison of EPC colony formation in peripheral blood after intra-bone marrow administration of SP and G-CSF; format: in vivo, New Zealand white rabbits; settings: rabbit, intra-bone marrow administration, 1, 2 and 3 days, compared to G-CSF
Experimental: as §2, with “2-(2),” for “1-(1),”

[5] = test system: inflammatory cells (neutrophils, eosinophils and monocytes); test: Complete blood cell count of peripheral blood after intra-bone marrow administration; format: in vivo, New Zealand white rabbits; settings: rabbit, intra-bone marrow administration, 1, 2 and 3 days
[6] = test system: EPCs; test: Ability to form tubes in vitro on Matrigel of EPCs cultured from blood after SP; format: cell-based, New Zealand white rabbits; settings: EPCs from peripheral blood after intravenous SP, 12 hours
Experimental: In order to examine the blood vessel-forming ability of the EPCs that have been isolated and cultured from the blood, the cells were cultured on Matrigel (BD). For this purpose, 200 μl of Matrigel was added to each well of a 96-well plate and incubated at 37° C. for 30 minutes. The cells were added to each well containing Matrigel at a density of 2×10^4 and cultured for 12 hours. When mesenchymal stem cells (MSCs) were cultured in the same manner as described above, colonies were formed as shown in FIG. 4B.

[7] = test system: EPCs; test: Immunohistochemical staining of cells cultured from peripheral blood with EPC markers CD34 and UEA; format: cell-based, New Zealand white rabbits; settings: cells cultured from peripheral blood after intravenous SP, fluorescence microscopy
Experimental: In order to examine the presence of EPCs in peripheral blood using the EPC markers CD34 and UEA, EPCs (2×10^4 cells/well) that have been isolated and cultured from the above blood were incubated on cover slips for CD34 test and UEA test, respectively. After incubation in a 5% CO2 incubator at 37° C. for 24 hours, the cells were washed with PBS. Then, the cells were fixed with 3.7% paraformaldehyde and washed again with PBS.
The washed cells were blocked with 20% goat serum and treated with anti-CD 34 antibody at room temperature for 1 hour. Then, the cells were washed again with PBS and treated with FITC-conjugated anti-mouse IgG at room temperature for 1 hour. To remove excess of antibodies, the cells were washed with PBS, counterstained with DAPI, and then mounted.
The washed cells were blocked with 20% goat serum and treated with UEA-biotin at room temperature for 1 hour. Then, the cells were washed again with PBS and treated with streptavidin-FITC at room temperature for 1 hour. The cells were washed with PBS, counterstained with DAPI, and then mounted.
For negative control in immune fluorescence staining, cultured cells were treated with only secondary antibody, and the expression thereof was observed (FIG. 2C).

[8] = test system: inflammatory cells (neutrophils and monocytes); test: Complete blood cell count of peripheral blood after intravenous administration; format: in vivo, New Zealand white rabbits; settings: rabbit, intravenous administration, 1, 2 and 3 days, vs PBS control
Experimental: 1 ml of each of the peripheral bloods obtained 1, 2 and 3 days after intravenous administration of SP and G-CSF was placed in an EDTA-containing vial and mixed well to prevent clotting. In the experiment for isolating EPCs from blood cells, the complete blood cell counting of each blood was performed by Royal ARC (Korea) under the same conditions for each blood.

Molecule	increase in amount of mobilized EPCs (CFU) compared to group administered with positive control G-CSF [1]	increase in amount of mobilized EPCs (CFU) compared to negative control group [1]	amount of EPCs in peripheral blood over 1, 2 and 3 days ([2]; days 1-3)	amount of EPCs in peripheral blood (colonies) [3]	effect of stimulating EPC mobilization (EPC colonies in peripheral blood) [4]	inflammatory cells (neutrophils, eosinophils and monocytes) in peripheral blood [5]	ability to form tubes in vitro [6]	presence of EPCs in peripheral blood by EPC markers CD34 and UEA [7]	EPCs in peripheral blood after the second day ([2]; after the second day)	EPCs in peripheral blood at the first day ([2]; day 1)	inflammatory cells (neutrophils and monocytes) in peripheral blood [8]
Substance-P [SP]	about 3 fold	10-12 fold	continuously increased	significantly increased	excellent effect of stimulating EPC mobilization compared to G-CSF	without causing side effects such as inflammation	had the ability to form blood vessels	contained a large amount of EPCs			
B1		about 4 fold				significantly increased			no EPCs were found	temporarily increased	significantly increased
